The target of this assay is T1, NaV1.5 channel (native basal late sodium current, INaL) (Cavia porcellus, UniProt H0V4Z8).
T1 construct: gene SCN5A; native channel in isolated guinea pig ventricular myocytes
In words: whole-cell patch clamp of late Na+ current, single concentration ([…]). The class given is cell-based. The following applies: read-out: % inhibition at 2 mmol/L. (In patch-clamp work, channel activity is measured electrically.)

T1 sequence (H0V4Z8 1-2015): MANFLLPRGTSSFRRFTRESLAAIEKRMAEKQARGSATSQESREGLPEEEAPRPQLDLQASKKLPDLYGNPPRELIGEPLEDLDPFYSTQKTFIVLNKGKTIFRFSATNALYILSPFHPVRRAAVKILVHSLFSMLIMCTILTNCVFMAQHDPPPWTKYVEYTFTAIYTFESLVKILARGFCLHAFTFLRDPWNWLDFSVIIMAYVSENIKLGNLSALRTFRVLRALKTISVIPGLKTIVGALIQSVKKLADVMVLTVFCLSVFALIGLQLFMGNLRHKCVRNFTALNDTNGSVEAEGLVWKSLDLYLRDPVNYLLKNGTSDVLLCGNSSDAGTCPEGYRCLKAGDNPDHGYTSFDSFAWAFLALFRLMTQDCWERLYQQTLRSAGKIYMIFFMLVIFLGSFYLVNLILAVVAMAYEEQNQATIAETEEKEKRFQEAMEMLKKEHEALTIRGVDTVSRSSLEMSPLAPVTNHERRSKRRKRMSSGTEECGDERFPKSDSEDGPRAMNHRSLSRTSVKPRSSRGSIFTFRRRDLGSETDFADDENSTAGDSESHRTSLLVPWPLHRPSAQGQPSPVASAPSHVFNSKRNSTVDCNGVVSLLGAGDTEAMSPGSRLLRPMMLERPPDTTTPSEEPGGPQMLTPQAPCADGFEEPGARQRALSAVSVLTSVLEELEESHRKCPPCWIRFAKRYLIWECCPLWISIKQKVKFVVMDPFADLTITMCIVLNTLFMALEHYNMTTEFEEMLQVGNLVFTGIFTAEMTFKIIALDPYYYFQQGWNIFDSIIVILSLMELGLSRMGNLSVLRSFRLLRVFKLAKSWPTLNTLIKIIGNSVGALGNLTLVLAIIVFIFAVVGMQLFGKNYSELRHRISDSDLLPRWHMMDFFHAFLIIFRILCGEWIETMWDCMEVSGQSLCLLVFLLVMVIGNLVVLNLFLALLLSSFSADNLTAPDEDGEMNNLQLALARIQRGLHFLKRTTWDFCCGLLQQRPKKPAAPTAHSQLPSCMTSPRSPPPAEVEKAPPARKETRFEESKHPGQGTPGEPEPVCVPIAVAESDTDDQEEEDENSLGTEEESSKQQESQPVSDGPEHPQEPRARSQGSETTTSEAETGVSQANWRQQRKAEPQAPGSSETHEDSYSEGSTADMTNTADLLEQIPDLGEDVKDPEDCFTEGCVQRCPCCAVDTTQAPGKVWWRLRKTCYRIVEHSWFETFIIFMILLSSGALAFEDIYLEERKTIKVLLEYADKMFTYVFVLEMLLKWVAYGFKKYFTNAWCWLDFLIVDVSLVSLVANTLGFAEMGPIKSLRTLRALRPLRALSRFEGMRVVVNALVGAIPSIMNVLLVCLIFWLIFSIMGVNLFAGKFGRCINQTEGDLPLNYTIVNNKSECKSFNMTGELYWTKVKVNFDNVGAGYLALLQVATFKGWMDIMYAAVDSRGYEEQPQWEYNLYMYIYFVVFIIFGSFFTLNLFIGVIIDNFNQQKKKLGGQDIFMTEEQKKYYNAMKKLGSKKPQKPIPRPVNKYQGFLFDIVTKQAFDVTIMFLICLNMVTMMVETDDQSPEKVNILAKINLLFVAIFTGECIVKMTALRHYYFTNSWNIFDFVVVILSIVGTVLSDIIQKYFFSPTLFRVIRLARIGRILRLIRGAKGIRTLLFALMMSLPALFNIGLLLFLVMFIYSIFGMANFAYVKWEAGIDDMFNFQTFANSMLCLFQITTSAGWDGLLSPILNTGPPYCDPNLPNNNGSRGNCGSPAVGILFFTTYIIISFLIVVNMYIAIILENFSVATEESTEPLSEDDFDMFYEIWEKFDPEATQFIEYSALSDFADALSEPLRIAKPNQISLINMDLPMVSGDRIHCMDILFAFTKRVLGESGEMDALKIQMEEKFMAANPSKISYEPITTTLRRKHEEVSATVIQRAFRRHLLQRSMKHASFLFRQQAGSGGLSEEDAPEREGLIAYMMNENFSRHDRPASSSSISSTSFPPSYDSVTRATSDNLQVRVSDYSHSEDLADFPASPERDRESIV

Consider `CS(=O)(=O)SCCN` [MTSEA], for which the inhibition at 2000 µM worked out at 90 ± 5%.

For the origin of these results see PMC5449569, “Basal late sodium current is a significant contributor to the duration of action potential of guinea pig ventricular myocytes” (Physiological Reports, 2017).
